PubChem BioAssay (NCI)
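Dose response: 5 concentrations. Exposure: 48 h. Format: 96-well plates. Endpoint: linear interpolation; highest concentration if not reached. TGI is the concentration that stops growth completely.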 Where a SMILES comes first, the peptide text is derived from it. Bridges are numbered along the chain shown (N, C = ends). The star is where a group is joined. Cbz = O=C(OCc1ccccc1)*

Columns and labels:
Experiment in all cases: NCI tumour cell line growth inhibition, 48 h
[1] = tested on: HT29 colon
[2] = tested on: SN12C renal
[3] = tested on: SK-OV-3 ovarian
[4] = tested on: SK-MEL-2 melanoma
[5] = tested on: MDA-N
[6] = tested on: HS 578T breast
[7] = tested on: HCT-116 colon
[8] = tested on: SW-620 colon
[9] = tested on: NCI-H460 lung
[10] = tested on: LOX IMVI melanoma
[11] = tested on: UACC-62 melanoma
[12] = tested on: 786-0 renal
[13] = tested on: SF-295 CNS
[14] = tested on: SNB-19 CNS
[15] = tested on: TK-10 renal
[16] = tested on: OVCAR-8 ovarian
[17] = tested on: HCC-2998 colon
[18] = tested on: SR leukemia
[19] = tested on: RPMI-8226 leukemia
[20] = tested on: COLO 205 colon
[21] = tested on: MALME-3M melanoma
[22] = tested on: NCI-H522 lung
[23] = tested on: SNB-75 CNS
[24] = tested on: OVCAR-3 ovarian
[25] = tested on: NCI/ADR-RES ovarian
[26] = tested on: RXF 393 renal
[27] = tested on: SK-MEL-28 melanoma
[28] = tested on: MOLT-4 leukemia
[29] = tested on: NCI-H23 lung
[30] = tested on: A549 NSCLC
[31] = tested on: UO-31 renal
[32] = tested on: IGROV1 ovarian
[33] = tested on: HCT-15 colon
[34] = tested on: NCI-H226 lung
[35] = tested on: DU-145 prostate
[36] = tested on: MDA-MB-231 breast
[37] = tested on: K-562 leukemia
[38] = tested on: BT-549 breast
[39] = tested on: OVCAR-5 ovarian
[40] = tested on: OVCAR-4 ovarian
[41] = tested on: KM12 colon
[42] = tested on: U251 CNS
[43] = tested on: CCRF-CEM leukemia
[44] = tested on: EKVX NSCLC
[45] = tested on: HL-60(TB) leukemia
[46] = tested on: HOP-92 NSCLC
[47] = tested on: MDA-MB-435
[48] = tested on: PC-3 prostate
[49] = tested on: SF-268 CNS
[50] = tested on: ACHN renal
[51] = tested on: HOP-62 NSCLC
[52] = tested on: A498 renal
[53] = tested on: CAKI-1 renal
[54] = tested on: UACC-257 melanoma
[55] = tested on: SK-MEL-5 melanoma
[56] = tested on: SF-539 CNS
[57] = tested on: M14 melanoma
[58] = tested on: T-47D breast
[59] = tested on: MCF7 breast

## COc1ccc(N2C(=O)c3cc([N+](=O)[O-])cnc3S2(=O)=O)cc1
[1]
  TGI: > 100 µM
[2]
  TGI: > 100 µM
[3]
  TGI: > 100 µM
[4]
  TGI: > 100 µM
[5]
  TGI: > 100 µM
[6]
  TGI: > 100 µM
[7]
  TGI: > 100 µM
[8]
  TGI: > 100 µM
[9]
  TGI: > 100 µM
[10]
  TGI: > 100 µM
[11]
  TGI: > 100 µM
[12]
  TGI: > 100 µM
[13]
  TGI: > 100 µM
[14]
  TGI: > 100 µM
[15]
  TGI: > 100 µM
[16]
  TGI: > 100 µM
[17]
  TGI: > 100 µM
[18]
  TGI: > 100 µM
[19]
  TGI: > 100 µM
[20]
  TGI: > 100 µM
[21]
  TGI: > 100 µM
[22]
  TGI: > 100 µM
[23]
  TGI: > 100 µM
[24]
  TGI: > 100 µM
[25]
  TGI: > 100 µM
[26]
  TGI: > 100 µM
[27]
  TGI: > 100 µM
[28]
  TGI: > 100 µM
[29]
  TGI: > 100 µM
[30]
  TGI: > 100 µM
[31]
  TGI: > 100 µM
[32]
  TGI: > 100 µM
[33]
  TGI: > 100 µM
[34]
  TGI: > 100 µM
[35]
  TGI: > 100 µM
[36]
  TGI: > 100 µM
[37]
  TGI: > 100 µM
[38]
  TGI: > 100 µM
[39]
  TGI: > 100 µM
[40]
  TGI: > 100 µM
[41]
  TGI: > 100 µM
[42]
  TGI: > 100 µM
[43]
  TGI: > 100 µM
[44]
  TGI: > 100 µM
[45]
  TGI: > 100 µM
[46]
  TGI: > 100 µM
[47]
  TGI: > 100 µM
[48]
  TGI: > 100 µM
[49]
  TGI: > 100 µM
[50]
  TGI: > 100 µM
[51]
  TGI: > 100 µM

## CNC(=O)C1CCCCNC(=O)CCC(NC(=O)OCc2ccccc2)C(=O)N1 (stereo not drawn) (Cbz-Glu-Lys-NHMe; lactam 1-2; configuration not given here)
[1]
  TGI: > 100 µM
[52]
  TGI: > 100 µM
[2]
  TGI: > 100 µM
[3]
  TGI: > 100 µM
[53]
  TGI: > 100 µM
[4]
  TGI: > 100 µM
[5]
  TGI: > 100 µM
[6]
  TGI: > 100 µM
[7]
  TGI: > 100 µM
[8]
  TGI: > 100 µM
[9]
  TGI: > 100 µM
[10]
  TGI: > 100 µM
[11]
  TGI: > 100 µM
[12]
  TGI: > 100 µM
[13]
  TGI: > 100 µM
[14]
  TGI: > 100 µM
[15]
  TGI: > 100 µM
[16]
  TGI: > 100 µM
[19]
  TGI: > 100 µM
[20]
  TGI: > 100 µM
[21]
  TGI: > 100 µM
[22]
  TGI: > 100 µM
[23]
  TGI: > 100 µM
[24]
  TGI: > 100 µM
[54]
  TGI: > 100 µM
[25]
  TGI: > 100 µM
[26]
  TGI: > 100 µM
[27]
  TGI: > 100 µM
[55]
  TGI: > 100 µM
[28]
  TGI: > 100 µM
[29]
  TGI: > 100 µM
[30]
  TGI: > 100 µM
[31]
  TGI: > 100 µM
[32]
  TGI: > 100 µM
[33]
  TGI: > 100 µM
[56]
  TGI: > 100 µM
[34]
  TGI: > 100 µM
[35]
  TGI: > 100 µM
[36]
  TGI: > 100 µM
[37]
  TGI: > 100 µM
[39]
  TGI: > 100 µM
[40]
  TGI: > 100 µM
[57]
  TGI: > 100 µM
[41]
  TGI: > 100 µM
[42]
  TGI: > 100 µM
[58]
  TGI: > 100 µM
[43]
  TGI: > 100 µM
[59]
  TGI: > 100 µM
[44]
  TGI: > 100 µM
[45]
  TGI: > 100 µM
[46]
  TGI: > 100 µM
[47]
  TGI: > 100 µM
[48]
  TGI: > 100 µM
[49]
  TGI: > 100 µM
[50]
  TGI: > 100 µM
[51]
  TGI: > 100 µM

## CC(C)(C)[Si](C)(C)OCC1OC(n2cnc3c(N)ncnc32)C2OC(=S)OC12 (stereo unspecified)
[1]
  TGI: > 100 µM
[52]
  TGI: > 100 µM
[2]
  TGI: > 100 µM
[3]
  TGI: 97 µM
[53]
  TGI: > 100 µM
[4]
  TGI: 74.7 µM
[5]
  TGI: 94 µM
[6]
  TGI: > 100 µM
[7]
  TGI: > 100 µM
[8]
  TGI: > 100 µM
[9]
  TGI: > 100 µM
[10]
  TGI: > 100 µM
[11]
  TGI: 77.8 µM
[13]
  TGI: > 100 µM
[14]
  TGI: > 100 µM
[15]
  TGI: > 100 µM
[16]
  TGI: > 100 µM
[18]
  TGI: > 100 µM
[19]
  TGI: > 100 µM
[20]
  TGI: > 100 µM
[21]
  TGI: 98.3 µM
[23]
  TGI: > 100 µM
[24]
  TGI: 91.9 µM
[54]
  TGI: > 100 µM
[25]
  TGI: 81.2 µM
[26]
  TGI: > 100 µM
[27]
  TGI: > 100 µM
[55]
  TGI: 36.1 µM
[28]
  TGI: 69.3 µM
[29]
  TGI: 73.3 µM
[31]
  TGI: 78.3 µM
[32]
  TGI: > 100 µM
[33]
  TGI: > 100 µM
[34]
  TGI: > 100 µM
[35]
  TGI: > 100 µM
[36]
  TGI: > 100 µM
[37]
  TGI: > 100 µM
[38]
  TGI: 74.7 µM
[39]
  TGI: 86.6 µM
[40]
  TGI: > 100 µM
[57]
  TGI: > 100 µM
[41]
  TGI: > 100 µM
[42]
  TGI: 68.2 µM
[43]
  TGI: 59 µM
[59]
  TGI: 93.4 µM
[45]
  TGI: > 100 µM
[46]
  TGI: > 100 µM
[47]
  TGI: 48.3 µM
[48]
  TGI: > 100 µM
[51]
  TGI: > 100 µM

## O=C(CC(NC(=O)OCc1ccccc1)C(=O)NC1Cc2ccccc2C1=O)OCc1ccccc1 (stereo unspecified)
[1]
  TGI: > 100 µM
[2]
  TGI: > 100 µM
[3]
  TGI: > 100 µM
[53]
  TGI: > 100 µM
[4]
  TGI: > 100 µM
[5]
  TGI: > 100 µM
[6]
  TGI: > 100 µM
[8]
  TGI: > 100 µM
[9]
  TGI: > 100 µM
[11]
  TGI: > 100 µM
[12]
  TGI: > 100 µM
[13]
  TGI: > 100 µM
[14]
  TGI: > 100 µM
[15]
  TGI: > 100 µM
[16]
  TGI: > 100 µM
[17]
  TGI: > 100 µM
[18]
  TGI: > 100 µM
[19]
  TGI: > 100 µM
[21]
  TGI: > 100 µM
[22]
  TGI: > 100 µM
[23]
  TGI: > 100 µM
[24]
  TGI: > 100 µM
[54]
  TGI: > 100 µM
[25]
  TGI: > 100 µM
[26]
  TGI: > 100 µM
[27]
  TGI: > 100 µM
[55]
  TGI: > 100 µM
[28]
  TGI: > 100 µM
[29]
  TGI: > 100 µM
[30]
  TGI: > 100 µM
[31]
  TGI: > 100 µM
[32]
  TGI: > 100 µM
[33]
  TGI: > 100 µM
[56]
  TGI: > 100 µM
[34]
  TGI: > 100 µM
[35]
  TGI: > 100 µM
[37]
  TGI: > 100 µM
[38]
  TGI: > 100 µM
[39]
  TGI: > 100 µM
[57]
  TGI: > 100 µM
[41]
  TGI: > 100 µM
[42]
  TGI: > 100 µM
[59]
  TGI: > 100 µM
[44]
  TGI: > 100 µM
[47]
  TGI: > 100 µM
[48]
  TGI: > 100 µM
[49]
  TGI: > 100 µM
[50]
  TGI: > 100 µM
[51]
  TGI: > 100 µM
